Measured values from PubChem BioAssay (NCI).
Where “and” joins values, the source holds several entries; their conditions need not be identical. Equal entries are not always repeated.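 A five-concentration, 48-hour dose response in 96-well plates underlies each endpoint, interpolated linearly between surrounding concentrations. GI50: concentration for 50% inhibition of growth. TGI is the concentration that stops growth completely.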

Legend:
Experiment in all cases: inhibition of tumour cell growth, NCI panel, 48 h
[1] = system: COLO 205 colon
[2] = system: HOP-62 NSCLC
[3] = system: HOP-92 NSCLC
[4] = system: HT29 colon
[5] = system: KM12 colon
[6] = system: MDA-MB-231 breast
[7] = system: SF-295 CNS
[8] = system: TK-10 renal
[9] = system: U251 CNS
[10] = system: SK-MEL-28 melanoma

Row | Compound | GI50 [1] | TGI [1] | GI50 [2] | TGI [2] | GI50 [3] | TGI [3] | GI50 [4] | TGI [4] | GI50 [5] | TGI [5] | GI50 [6] | TGI [6] | GI50 [7] | TGI [7] | GI50 [8] | TGI [8] | GI50 [9] | TGI [9] | GI50 [10] | TGI [10]
1 | NC1=Nc2cc(OCCCCN3Cc4ccccc4C3)c(OCC3CC3)cc2C12CCCC2 | 1.45 µM | 3.11 µM | 1.63 µM | 3.39 µM | 0.873 µM | 2.71 µM | 1.26 µM | 3.13 µM | 1.72 µM | 3.39 µM | 1.55 µM | 3.02 µM | 1.94 µM | 3.83 µM | 1.75 µM | 3.45 µM | 1.53 µM | 3.11 µM | – | –
2 | N=C(N)c1ccc(-c2ccc(-c3cccs3)s2)cc1F | 0.202 µM | 0.39 µM | 1.61 µM | 3.07 µM | 0.576 µM | 2.21 µM | – | – | 1.01 µM | 2.38 µM | 1.16 µM | 2.93 µM | 0.39 µM | 1.78 µM | 1.61 µM | 3.03 µM | 1.33 µM | 2.8 µM | 1.45 µM | 3.09 µM
3 | CC1(C)CC[C@]2(C(=O)O)CC[C@]3(C)C(=CC[C@@H]4[C@@]5(C)C/C(=C/c6cccnc6)[C@H](O)C(C)(C)[C@@H]5CC[C@]43C)[C@@H]2C1 | 9.71 µM | 29.6 µM | 13 µM | > 100 µM | 2.22 µM | 10.1 µM | 8.78 µM | 42.1 µM | 4.58 µM | 32.7 µM | 14.9 µM | 57.3 µM | 4.3 µM | 87.4 µM | 21.7 µM | > 100 µM | 5.59 µM | 32.7 µM | 11.1 µM | 35 µM
4 | Cc1n[nH]c(C)c1-c1c(C)n[nH]c1C | 1.92 µM | 4.23 µM | 2.4 µM | 9.11 µM | 1.17 µM | 2.99 µM | 2.01 µM | 4.81 µM | 1.8 µM | 3.97 µM | 1.83 µM | 4.53 µM | 1.81 µM | 3.63 µM | 2.89 µM | 7.2 µM | 1.64 µM | 3.76 µM | 1.8 µM | 3.49 µM
5 | COC(=O)[C@@H](C)C[C@H](Cc1ccccc1)NC(=O)c1nc([C@@H](C[C@H](C(C)C)N(C)C(=O)[C@@H](NC(=O)[C@H]2CC(=O)CCN2C)C(C)C)OC(C)=O)sc1C(C)C | 0.208 µM | 1.69 µM | 0.694 µM | > 16.7 µM | 0.119 µM | > 16.7 µM | 0.146 µM | > 6.97 µM | 0.132 µM | > 6.76 µM | 0.373 µM | 3.28 µM | 0.277 µM | 3.02 µM | 1.43 µM | > 16.7 µM | 0.352 µM | > 10.5 µM | 0.524 µM | > 16.7 µM
6 | N#CSc1c[nH]c2cccc(/C=C/C(=O)/C=C(O)/C=C/c3cccc4[nH]cc(SC#N)c34)c12 | 0.423 µM | 1.07 µM | 1.15 µM | 4.35 µM | 0.51 µM | 1.27 µM | 0.496 µM | 2.05 µM | 0.351 µM | 0.998 µM | 0.553 µM | 1.21 µM | 0.746 µM | 2.29 µM | 0.756 µM | 2.51 µM | 0.185 µM | 1.14 µM | 0.495 µM | 1.15 µM
7 | Nc1c2ccccc2nc2ccccc12 | 0.966 µM and 1.83 µM | 2.36 µM and 4.45 µM | 1.66 µM and 3.66 µM | 4.96 µM and 15.2 µM | 1.63 µM and 3.71 µM | 4.82 µM and 23.2 µM | 0.98 µM and 1.94 µM | 3.23 µM and 7.34 µM | 2.04 µM and 3.27 µM | 7.58 µM and 14 µM | 1.99 µM and 2.51 µM | 6.09 µM and 8.37 µM | 1.61 µM and 3.08 µM | 9.52 µM and 17.5 µM | 2.07 µM and 4.61 µM | – | 2.16 µM and 3.34 µM | 8 µM and 13.1 µM | 1.89 µM and 3.69 µM | 3.92 µM and 13.7 µM
8 | Cc1cc(C)c(CNC(=O)c2cc(Cl)c3c(c2C)O[C@@](C)(C2CCC(N(C)C)CC2)O3)c(=O)[nH]1 (some centres not stated) | > 100 µM | > 100 µM | > 100 µM | > 100 µM | 18.4 µM | > 100 µM | 33.8 µM | > 100 µM | > 100 µM | > 100 µM | 59.5 µM | > 100 µM | > 100 µM | > 100 µM | > 100 µM | > 100 µM | 68 µM | > 100 µM | > 100 µM | > 100 µM
9 | Nc1nc(-c2ccccn2)c(-c2ccc3ncccc3n2)s1 | > 25 µM | > 25 µM | > 25 µM | > 25 µM | 13.3 µM | > 25 µM | > 25 µM | > 25 µM | > 25 µM | > 25 µM | > 25 µM | > 25 µM | > 25 µM | > 25 µM | > 25 µM | > 25 µM | > 25 µM | > 25 µM | > 25 µM | > 25 µM
10 | COc1cc2nc(NC3CCC3)nc(NC3CCN(C(C)C)CC3)c2cc1OC | 1.88 µM | 3.81 µM | 2.6 µM | 11 µM | 1.46 µM | 3.64 µM | 1.75 µM | 3.97 µM | 4.01 µM | 14.7 µM | 1.84 µM | 3.79 µM | 1.87 µM | 3.67 µM | – | – | 1.95 µM | 4.52 µM | 1.94 µM | 3.66 µM
11 | Cc1ccc(CNc2ccc(Cl)cc2NCc2ccc(C)c(O)c2)cc1O | 8.01 µM | 15.9 µM | 8.85 µM | 16.8 µM | 6.91 µM | 14.2 µM | 9.73 µM | 17.9 µM | 6.52 µM | 13.8 µM | 5.63 µM | 12.9 µM | 8.24 µM | 15.2 µM | 8.4 µM | 15.5 µM | 7.15 µM | 14.2 µM | 7.21 µM | 14.2 µM
12 | CC(=O)O[C@@H]1[C@H]2O[C@H]2[C@H]2O[C@@]2(COC(=O)c2ccccc2)[C@H]1OC(C)=O | – | > 100 µM | – | – | – | > 100 µM | – | > 100 µM | – | > 100 µM | – | > 100 µM | – | > 100 µM | – | > 100 µM | – | > 100 µM | – | > 100 µM
13 | O=C1Nc2ccc(I)cc2/C1=C/c1cc(Br)c(O)c(Br)c1 | 24.3 µM and 18.3 µM | > 25 µM and 71.4 µM | > 25 µM and 21.9 µM | > 25 µM and 46.9 µM | 15.6 µM | 54.7 µM | > 20.6 µM and 13.5 µM | > 25 µM and 52.5 µM | > 15.9 µM and 12 µM | > 25 µM and 28.7 µM | > 20.4 µM and 16.1 µM | > 25 µM and 44.2 µM | > 15.9 µM and 17.2 µM | > 100 µM | > 25 µM and 31.1 µM | > 92.3 µM | > 24.1 µM and 15.1 µM | > 25 µM and 36.3 µM | 14.4 µM and 9.72 µM | > 72.2 µM
